Assay results reported in article PMC3914206.

Assays:
Type in all cases: binding
Conditions in all cases: Compound Concentration 10 µM
[1] = biological target: T1, panel of 442 kinases (Homo sapiens, UniProt Q04912)
T1 construct: purchased KINOMEscan
From the text: (§1) We assessed the selectivity of members of this scaffold using the KINOMEscan methodology across a near comprehensive panel of 442 kinases [[18,27]].

[2] = biological target: T2, panel of 442 kinases (Homo sapiens, UniProt P78368)
T2 construct: purchased KINOMEscan
T2 sequence (P78368 whole entry): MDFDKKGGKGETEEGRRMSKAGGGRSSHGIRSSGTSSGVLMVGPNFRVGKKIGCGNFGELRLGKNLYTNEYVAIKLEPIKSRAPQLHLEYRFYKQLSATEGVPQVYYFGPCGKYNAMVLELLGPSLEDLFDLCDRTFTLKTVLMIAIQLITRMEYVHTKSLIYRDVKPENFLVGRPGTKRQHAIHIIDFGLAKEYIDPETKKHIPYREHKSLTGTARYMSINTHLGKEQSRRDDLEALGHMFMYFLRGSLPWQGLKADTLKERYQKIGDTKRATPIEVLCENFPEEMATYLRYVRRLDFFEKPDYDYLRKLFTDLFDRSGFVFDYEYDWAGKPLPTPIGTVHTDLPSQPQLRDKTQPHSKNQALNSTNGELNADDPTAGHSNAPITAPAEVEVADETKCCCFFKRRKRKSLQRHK
From the text: as §1

[3] = biological target: T3, panel of 442 kinases (Homo sapiens, UniProt Q00526)
T3 construct: purchased KINOMEscan
T3 sequence (Q00526 whole entry): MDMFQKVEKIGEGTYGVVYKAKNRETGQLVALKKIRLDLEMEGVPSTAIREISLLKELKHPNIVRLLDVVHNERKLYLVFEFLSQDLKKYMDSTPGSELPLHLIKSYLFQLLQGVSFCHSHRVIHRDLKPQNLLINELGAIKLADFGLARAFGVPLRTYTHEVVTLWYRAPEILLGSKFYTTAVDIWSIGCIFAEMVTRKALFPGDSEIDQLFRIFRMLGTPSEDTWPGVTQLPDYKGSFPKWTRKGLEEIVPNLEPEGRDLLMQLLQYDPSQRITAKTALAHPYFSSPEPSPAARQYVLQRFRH
From the text: as §1

T1 sequence (Q04912 25-1400): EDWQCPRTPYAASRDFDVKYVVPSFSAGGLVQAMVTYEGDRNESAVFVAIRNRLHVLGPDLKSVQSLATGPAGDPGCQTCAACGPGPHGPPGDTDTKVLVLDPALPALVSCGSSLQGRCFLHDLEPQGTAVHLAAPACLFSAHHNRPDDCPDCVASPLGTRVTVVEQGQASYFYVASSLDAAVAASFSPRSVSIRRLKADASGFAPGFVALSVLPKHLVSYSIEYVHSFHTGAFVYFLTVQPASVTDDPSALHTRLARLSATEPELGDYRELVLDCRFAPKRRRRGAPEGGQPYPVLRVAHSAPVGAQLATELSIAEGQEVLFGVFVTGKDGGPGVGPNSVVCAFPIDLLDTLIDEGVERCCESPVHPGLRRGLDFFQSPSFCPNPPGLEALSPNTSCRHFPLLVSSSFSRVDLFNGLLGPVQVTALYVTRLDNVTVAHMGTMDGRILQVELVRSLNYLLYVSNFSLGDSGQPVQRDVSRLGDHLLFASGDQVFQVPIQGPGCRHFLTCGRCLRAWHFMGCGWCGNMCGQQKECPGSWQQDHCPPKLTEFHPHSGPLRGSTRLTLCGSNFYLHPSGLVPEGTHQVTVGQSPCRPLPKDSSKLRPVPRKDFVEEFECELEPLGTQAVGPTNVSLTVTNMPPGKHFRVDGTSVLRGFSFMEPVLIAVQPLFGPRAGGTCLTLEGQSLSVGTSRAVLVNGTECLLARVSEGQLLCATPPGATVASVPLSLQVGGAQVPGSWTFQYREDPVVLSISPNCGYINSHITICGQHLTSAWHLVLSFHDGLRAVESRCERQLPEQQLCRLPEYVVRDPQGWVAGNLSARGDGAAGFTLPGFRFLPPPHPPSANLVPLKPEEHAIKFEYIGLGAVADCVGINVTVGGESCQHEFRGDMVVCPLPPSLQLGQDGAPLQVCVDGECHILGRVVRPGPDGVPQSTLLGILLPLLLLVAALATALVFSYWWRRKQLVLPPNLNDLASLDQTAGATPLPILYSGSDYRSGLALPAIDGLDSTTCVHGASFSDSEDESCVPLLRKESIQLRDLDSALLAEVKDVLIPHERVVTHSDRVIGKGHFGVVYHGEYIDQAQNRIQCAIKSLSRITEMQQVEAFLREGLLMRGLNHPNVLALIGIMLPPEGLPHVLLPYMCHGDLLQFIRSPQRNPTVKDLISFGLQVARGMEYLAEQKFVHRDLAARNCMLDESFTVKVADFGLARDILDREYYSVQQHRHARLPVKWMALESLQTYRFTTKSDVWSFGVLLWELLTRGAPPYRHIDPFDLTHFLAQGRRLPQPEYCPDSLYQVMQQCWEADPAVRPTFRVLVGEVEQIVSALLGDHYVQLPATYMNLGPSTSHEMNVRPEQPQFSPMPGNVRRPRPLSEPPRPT

Row | Compound | KINOMEscan: MST1R [1] | KINOMEscan: CSNK1G2 [2] | KINOMEscan: CDK3 [3]
1 | COc1cc(C(=O)N2CCC(N3CCN(C)CC3)CC2)ccc1Nc1ncc2c(n1)N(C)c1ccccc1C(=O)N2C [15 (LRRK2-IN-1)] | 98 | 100 | 100
2 | COc1cc(C(=O)N2CCC(N3CCN(C)CC3)CC2)ccc1Nc1ncc2c(n1)N(C1CCCC1)c1ccccc1C(=O)N2C [Compound 25, 11-cyclopentyl-2-((2-methoxy-4-(4-(4-methylpiperazin-1-yl)piperidine-1-carbonyl)phenyl)amino)-5-methyl-5H-benzo[e]pyrimido[5,4-b][1,4]diazepin-6(11H)-one] | 100 | 91 | 100
3 | CCOc1cc(C(=O)N2CCC(N3CCN(C)CC3)CC2)ccc1Nc1ncc2c(n1)N(C1CCCC1)c1ccccc1C(=O)N2C [Compound 26] | 100 | 96 | 100
